Source: US20150105471A1, “PARACETAMOL FOR PARENTERAL ADMINISTRATION” (Fresenius Kabi Deutschland GmbH, priority 2009, published 2015)

Experiments:
[1] = buffer properties of cysteine; assay type: physicochemical; conditions: pH 5.5 to 7
Text: In a preferred embodiment, the composition according to the invention, preferably an infusion solution, contains cysteine, if appropriate additionally to mannitol.

[2] = electrical conductivity of aqueous paracetamol solutions; assay type: physicochemical
Description: The composition according to the invention, preferably an infusion solution, has an electrical conductivity of at most 200 μS cm^−1. The measurement of the electrical conductivity of aqueous solutions is known to the person skilled in the art and suitable measuring apparatuses are obtainable commercially. The electrical conductivity is preferably measured at room temperature. […]
Aqueous solutions of paracetamol and further ingredients were prepared. The electrical conductivity of the solutions was measured and the storage stability of paracetamol was determined by means of the formation of degradation products (for the formation of the dimer cf., for example, D. W. Pottert et al, J Biol Chem, 1985, […], 12174-80; W. Clegg et al., Acta Crystallographica, 1998, C54, 1881-2).

buffer properties [1] | electrical conductivity ([2]; 10 g of paracetamol in 1000 ml of water) | electrical conductivity ([2]; 10 g of paracetamol in 1000 ml of water plus 100 mg of NaCl (0.01% by weight of NaCl)) | SMILES
no buffer properties at all |  |  | N[C@@H](CS)C(=O)O [cysteine]
 | about 4 μS/cm | about 200 μS/cm | CC(=O)Nc1ccc(O)cc1 [paracetamol]
